The text below walks through data of publication PMC6562610, “Inhibition of Hedgehog Signaling in Fibroblasts, Pancreatic, and Lung Tumor Cells by Oxy186, an Oxysterol Analogue with Drug-Like Properties” (Cells, 2019).

In general, IC50 refers to the concentration that inhibits the measured activity by half. As a reminder, the fraction remaining is the share of the starting amount still present when the sample was taken. For orientation: half-life means how long it takes for the measured level to halve.

Entries after “also recorded” stand apart in the source; their conditions may differ.

Data set [1] deals with Gli1 expression in PANC-1 cells. As to the kind of experiment: Inhibition of baseline Gli1 expression in PANC-1 cells, Q-RT-PCR. Type of data set: cell-based, human. The settings on record: 48 h. An excerpt: (§1) NIH3T3-E1 fibroblasts were obtained from ATCC (Manassas, VA) and cultured, as previously described. CAPAN-1 and PANC-1 human pancreatic cancer cells were obtained from ATCC and cultured in Dulbecco’s Modified Eagle Medium (DMEM) containing 10% heat-inactivated fetal bovine serum (FBS) (Hyclone Laboratories, Logan, UT, USA) and antibiotics, as previously described. The human lung cancer cell lines A549 and H2030 were obtained from ATCC and cultured in RPMI-1640 containing 10% FBS. The human hepatoma cell line HepG2 was obtained from ATCC and cultured in DMEM containing 10% FBS. Mouse embryonic fibroblasts (MEFs) from suppressor of fused (Sufu) null mice (Sufu^−/−) were provided by Dr. Philip Beachy of Stanford University and cultured in DMEM containing 10% FBS. Gant61, SB431542 and vismodegib (GDC0449) were obtained from Cayman Chemical, HPI-1 was obtained from Abcam. For experiments, cells were treated in a medium containing 5% FBS.
(§2) Total RNA was extracted with the RNeasy Plus Mini Kit from Qiagen, according to the manufacturer’s instructions. One microgram of RNA was reverse-transcribed using an iScript Reverse Transcription Supermix from Bio-Rad, to make single-stranded cDNA. The cDNAs were then mixed with Qi SYBR Green Supermix (Bio-Rad, Hercules, CA, USA) for quantitative RT-PCR assay using a Bio-Rad I-cycler IQ quantitative thermocycler. All PCR samples were prepared in triplicate wells in a 96-well plate. […] Fold changes in gene expression were calculated using the ΔΔCt method. […]
(§3) Figure 4 Inhibition of Gli and Shh expression in (a) PDAC (PANC-1) and (b,c) human lung cancer cells (A549 and H2030, respectively) by Oxy186. Cells were treated with the compounds as indicated in DMEM or RPMI 1640 containing 5% FBS for (a) 48 or (b,c) 72 hours, then RNA was extracted and analyzed by Q-RT-PCR for the expression of Gli1 and normalized to GAPDH expression. (d) CAPAN-1 cells were treated with the compounds, as indicated, in DMEM containing 5% FBS for 72 h, then RNA was extracted and analyzed by Q-RT-PCR for the expression of Shh and normalized to GAPDH expression. […]

Data set [2] has as its system Gli1 expression in A549 cells. The data set can be described thus: Inhibition of Gli1 expression in A549 cells, Q-RT-PCR. In kind it is cell-based, human. As to conditions: 72 h.
Description: as §1, §2, §3

The test system of data set [3] is Gli1 expression in H2030 cells. The data set can be described thus: Inhibition of Gli1 expression in H2030 cells, Q-RT-PCR. In kind it is cell-based, human. The settings on record: 72 h.
Description: as §1, §2, §3

Data set [4] deals with Shh expression in CAPAN-1 cells. As to the kind of experiment: Inhibition of Shh expression in CAPAN-1 cells, Q-RT-PCR. In kind it is cell-based, human. As to conditions: 72 h.
Description: as §1, §2, §3

For another data set, the system named is A549 cells. As to the kind of experiment: Cell counting assay, A549. In kind it is cell-based, human. The settings on record: 96 h. The procedure: (§4) A549 and H2030 cells cultured in 12-well plates at 20% confluence were treated with Oxy186, HPI-1, Gant61, or GDC0449 for 96 hours and then trypsinized and suspended in fresh medium. An aliquot of cell suspension was applied to a hemocytometer and counted under a microscope.
(§5) Figure 6 Inhibition of human pancreatic and lung cancer cell proliferation by Oxy186. (a,c) A549, (b) and (d) H2030, (e) PANC-1, and (f) CAPAN-1 cells were treated with the compounds as indicated in RPMI 1640 (a–d) or DMEM (e,f) containing 5% FBS for 96 h and then were trypsinized and counted. Data from a representative experiment are reported as the mean of triplicate determinations ± SD (* p < 0.05 vs. Control; ** p < 0.01 vs. control).

The next data set concerns CAPAN-1 cells. As to the kind of experiment: Cell counting assay, CAPAN-1. Type of data set: cell-based, human. The settings on record: 96 h. The procedure:
as §4, §5

A further data set concerns H2030 cells. The data set can be described thus: Cell counting assay, H2030. The settings on record: 96 h. In kind it is cell-based, human. The procedure: as §4, §5
The test system of a further data set is PANC-1 cells. The data set can be described thus: Cell counting assay, PANC-1. In kind it is cell-based, human. As to conditions: 96 h. The procedure: as §4, §5
Data set [5] has as its system Hh target gene Gli1 expression in NIH3T3-E1 cells. The data set can be described thus: Inhibition of CAPAN-1 conditioned medium (ligand)-induced Gli1 mRNA expression, Q-RT-PCR. Type of data set: cell-based. As to conditions: NIH3T3 cells activated by CAPAN-1 CM Hh ligands, 72 h.
Description: as §1
Growth medium in confluent […] tissue culture plates of CAPAN-1 cells were replaced with 10 ml of fresh growth medium and cells were incubated for a total of 7 days. Conditioned medium (CM), containing Shh and Ihh, was collected and spun down to remove any detached cells and debris, aliquoted, and stored frozen at −80 °C [37].
Total RNA was extracted with the RNeasy Plus Mini Kit from Qiagen, according to the manufacturer’s instructions. One microgram of RNA was reverse-transcribed using an iScript Reverse Transcription Supermix from Bio-Rad, to make single-stranded cDNA. The cDNAs were then mixed with Qi SYBR Green Supermix (Bio-Rad, Hercules, CA, USA) for quantitative RT-PCR assay using a Bio-Rad I-cycler IQ quantitative thermocycler. […] Fold changes in gene expression were calculated using the ΔΔCt method. […]
Figure 3 Inhibition of ligand-induced Hedgehog signaling. […] After 72 h, RNA was extracted and analyzed by Q-RT-PCR for the expression of Hh target genes Gli1 (a,b,d) and Ptch1 (c), and normalized to Oaz1 expression. […] Luciferase activity was measured and normalized to the Renilla luciferase activity. […]

For a further data set, the system named is LXR target gene Abca1. The data set can be described thus: Induction of LXR target gene Abca1 in NIH3T3 cells, Q-RT-PCR. Type of data set: cell-based, mouse. The procedure:
(§6) Total RNA was extracted with the RNeasy Plus Mini Kit from Qiagen, according to the manufacturer’s instructions. One microgram of RNA was reverse-transcribed using an iScript Reverse Transcription Supermix from Bio-Rad, to make single-stranded cDNA. The cDNAs were then mixed with Qi SYBR Green Supermix (Bio-Rad, Hercules, CA, USA) for quantitative RT-PCR assay using a Bio-Rad I-cycler IQ quantitative thermocycler. All PCR samples were prepared in triplicate wells in a 96-well plate. After 40 cycles of PCR, melt curves were examined in order to ensure primer specificity. Fold changes in gene expression were calculated using the ΔΔCt method. Primers used for mouse were as follows: Oaz1 (5’-CCACTGCTTCGCCAGAGAG-3’) and (5’-CCCGGACCCAGGTTACTA-3’), Gli1 (5’-[…]-3’ and 5’-[…]-3’), Ptch1 (5’-CCATCGGCGACAAGAACC-3’ and 5’-[…]-3’), Hip (5’-[…]-3’ and 5’-[…]-3’), and Abca1 (5’-[…]-3’ and 5’-[…]-3’). Primers used for human were as follows: SREBP1c (5’-CGCTCCTCCATCAATGACA-3’ and 5’-[…]-3’), GAPDH (5’-[…]-3’ and 5’-[…]-3’), SHH (5’-CGGAGCGAGGAAGGGAAAG-3’) and (5’-[…]-3’), and GLI1 (5’-GAAGCCGAGCCGAGTATC-3’ and 5’-[…]-3’).
Figure 7 Induction of LXR target gene expression by Oxy186 and LXR agonist TO901317 (TO). (a) NIH3T3 cells and (b) HepG2 cells were treated with DMEM containing 5% FBS in the presence or absence of TO (2 µM) or Oxy186 (10 µM). […] Data from a representative experiment are reported as the mean of triplicate determinations ± SD (** p < 0.01 vs. control).

The nature of data set [6]: Pharmacokinetic study in mice, single oral dose. In kind it is in vivo, balb/c mice. The settings on record: Figure 8b drug-like properties summary. The procedure:
In an initial assessment of the drug-like properties of Oxy186, we performed a pharmacokinetic (PK) study in mice. Oxy186, formulated in 4% ethanol, 15% DMSO, and 81% corn oil, was administered to balb/c mice by oral gavage as a single dose of 50 mg/kg.
Figure 8 Drug-like properties of Oxy186. (a) A single dose of Oxy186 at 50 mg/kg, formulated in 4% ethanol/ 15% DMSO/ 81% corn oil, was administered to balb/c mice by oral gavage. Plasma samples were taken at 10 min, 30 min, 1, 2, 4, 6, 8, and 24 h, followed by LC/MS analysis of the plasma. (b) Evolution of Oxy186 from parent compound Oxy16 and their drug-like properties.

Data set [7] in a line: Metabolic stability in human liver microsomes. In kind it is in vitro ADME. Background: Liver microsomes are vesicles of endoplasmic reticulum, rich in cytochrome P450 enzymes.
Data set [8] in a line: Metabolic stability in mouse liver microsomes. Type of data set: in vitro ADME.
Another data set concerns LXR target gene SREBP1c. The data set can be described thus: Induction of LXR target gene SREBP1c in HepG2 cells, Q-RT-PCR. In kind it is cell-based, human. The settings on record: 2 µM, 72 h. The procedure: as §6
Figure 7 Induction of LXR target gene expression by Oxy186 and LXR agonist TO901317 (TO). (a) NIH3T3 cells and (b) HepG2 cells were treated with DMEM containing 5% FBS in the presence or absence of TO (2 µM) or Oxy186 (10 µM). […]

Take `CS(=O)(=O)c1ccc(C(=O)Nc2ccc(Cl)c(-c3ccccn3)c2)c(Cl)c1` [GDC0449, vismodegib]: in [1] (10 µM), the “Inhibition of high baseline expression of Gli1” value is on record as “did not have a similar effect”. For the same molecule, the “Inhibition of expression of Gli1” value in [2] (10 µM) and in [3] (10 µM) was “significantly inhibited” in each case. In addition, the “Inhibition of Shh expression” value in data set [4] is on record as “inhibitory effects on Shh expression in CAPAN-1 cells, but to a lesser extent”. Besides, the “Inhibition of cell proliferation” value in the data set on A549 cells (10 µM) was “not”. Besides, the Anti-proliferation effect entry in the data set with CAPAN-1 cells is listed as “marginally effective”.

Regarding `CN(C)c1ccccc1CN1CCCN(Cc2ccccc2N(C)C)C1c1ccncc1` [Gant61], in [1] (20 µM), the “Inhibition of high baseline expression of Gli1” value is “significantly inhibited”. The “Inhibition of expression of Gli1” value in [2] (20 µM) and in [3] (20 µM) was “significantly inhibited” each time. Further, the “Inhibition of Shh expression” value in data set [4] is given as “inhibitory effects on Shh expression in CAPAN-1 cells, but to a lesser extent; also recorded: significant inhibition”. Also, the “Inhibition of cell proliferation” value in the data set with A549 cells (20 µM) is listed as “significantly inhibited”. In addition, the Anti-proliferative effect entry in the data set on H2030 cells is listed as “significant anti-proliferative effect”. Further, the Anti-proliferation effect entry in the data set with PANC-1 cells and in the data set with CAPAN-1 cells was “significant anti-proliferation effects” throughout.

With `CC(C)CCC(O)C(C)(O)C1CCC2C3CC=C4CC(O)CCC4(C)C3CCC21C` [Oxy16, 20-α, 22(R)-dihydroxycholesterol, reference compound], the IC50 in data set [5] was over 5 µM. Further, the “LXR agonism (Figure 8b summary)” value in the data set on LXR target gene Abca1 (Figure 8b drug-like properties summary) is given as “Stronger LXR agonist”. Moreover, in data set [6], the “In vivo availability / stability (Figure 8b summary)” value is “Unstable in vivo”. In addition, the “HLM, Half-Life” value in [7] stood at 15 min. Further, the share remaining at 1 h in data set [7] (60 min, read-out: HLM, % Remaining after 60 min) is 6%; in data set [8] (60 min, read-out: MLM, % Remaining after 60 min) it was 5%. Moreover, the half-life in [7] (human, liver microsomes, read-out: HLM, Half-Life) was under 15 min; in data set [8] (read-out: MLM, Half-Life), 14 min.

`O=S(=O)(c1ccccc1)N(CC(F)(F)F)c1ccc(C(O)(C(F)(F)F)C(F)(F)F)cc1` [TO901317, reference compound]: the “Induction of expression of LXR target gene Abca1” value in the data set with LXR target gene Abca1 (NIH3T3-E1 cells, 2 µM, 72 h) is listed as “significantly induced”. For the same molecule, the “Induction of expression of SREBP1c” value in the data set on LXR target gene SREBP1c is recorded as “significantly induced”.
